Experimental data from patent publication US8758769B2, “Composition for preventing and treating acetaminophen inducing liver injury comprising the protein extract from Porphyra yezoensis” (Pukyong National University Industry Academic Cooperation …, priority 2006, dated 2014).

Assays:
[1] = test system: PCNA and caspase-3 in liver cell; assay: Liver cell injury inhibition by seaweed protein: PCNA and caspase-3 expression (western blot); format: cell-based; conditions: 20 mM AAP with or without seaweed protein
Method: Through the above results, it is confirmed that the cell apoptosis of the liver cell is induced by the increase of the AAP concentration and accordingly, the seaweed protein and AAP are processed together and the liver injury inhibition effect of the seaweed protein by AAP is confirmed.
At first, the degree of the PCNA protein expression capable of securing the recovery of the injured cell is confirmed. For this, a liver tissue is homogenized by lysis buffer (25 mM HEPES, pH 7.5, 5 mM EDTA, 2 mM DTT, 0.1% CHAPS) containing the protease inhibitor and then centrifuged by 14,000×g at 4° C. Thereafter, the protein concentration of the obtained upper layer solution is measured by means of a BCA protein assay kit. A loading process is performed by 50[…] per each lane, an electrophoresis process is performed by SDS-PAGE, and thereafter it is moved toward the PVDF membrane (Millipore, USA). At this time, the rainbow molecular marker (amersham) is used as the standard molecular weight. In the separated protein, the expressin of the caspase-3 protein is confirmed by means of Super Signal West Pico Chemiluminescent Substrate (pierce biotechnology incorporation, USA). […]

[2] = test system: caspase-3, PARP, Bcl-2 in liver cell; assay: Western blot of cell apoptosis related proteins in liver cell treated by AAP; format: cell-based; conditions: liver cell treated by AAP according to the concentration, 24 hours
Method: Through the above results, since it is confirmed that the cell apoptosis of the liver cell is induced by AAP, the liver cell is treated by means of AAP according to the concentration and the western blot is executed to observe the expression modes of the protein related to the cell apoptosis. For this, a cell is cultured at a culture dish of 100-mm diameter until it become a confluent monolayer of a confluent state by a medium containing 10% FBS. Thereafter, the medium is replaced with a serum free medium and cultured for 24 hours. After 24 hours, each sample is treated by a serum free medium added according to the concentration and cultured for 24 hours. The culture solution is removed, then washed by the cold PBS solution, and thereafter the cell is recovered through the cell lysate buffer solution containing 1% triton. After the centrifugal process, 4× Laemmli sample buffer (13.3% SDS, 0.4M Tris, 0.013% bromopheno blue, 40% glycerol, pH 6.5) is added to the obtained upper layer solution by 1× of concentration and then an electrophoresis manner is performed in 12.5% SDS-polyacrylamid gel by means of Mighty Small II Apparatus (Hopper Science Instruments, USA). After the electrophoresis manner, the protein separated into the gel is transferred to Immobilon-P membrane (Milipore corporation, the pore size: 0.1[…], USA) by means of Semi-dry Transfer unit, Sigma, USA), reacted at the room temperature for 2 hours in 1×TBS (Tris-buffered saline; 20 mM Tris-base, 137 mM NaCl, 1M HCl) containing 1% BSA, and thereafter left for a night at 4° C. by a primary antibody. Thereafter, the protein is washed by three times at each 10 minutes by TBS-T (Tris-buffered saline, 0.1% Tween 20) and reacted at the room temperature for 1 hour together with the anti-rabbit or anti-mouse IgG-conjugated horseradish peroxide secondary antibody diluted by 1:20,000. […]

HepG2 cell = assay: Cell apoptosis of the liver cell line by AAP (DAPI dyeing, DNA fragmentation); format: cell-based; conditions: HepG2, culture for 24 hours with AAP
Description: Accordingly, to confirm that the cell proliferation inhibition effect by AAP is a phenomenon by the cell apoptosis, the cell with AAP and cell with no AAP are washed by PBS by means of the characteristics in which only DNA within the cell nucleus, especially, only the cell apoptosis DNA is dyed. Thereafter, the cells are dyed by the DAPI solution and then observed by a fluorescent microscopy.
Specifically, the HepG2 cell treated by the seaweed protein is washed by PBS, fixed at the room temperature for 10 minutes by 3.7% of paraformaldehyde, and dyed by means of the 4,6-diamindino-2-phenylindole (DAPI)(sigma) solution as fluorescent materials for 10 minutes. These cells are again washed by twice and the form change of the nucleus thereof is compared with that of the normal group by means of a fluorescence microscope.
To examine the DNA fragmentation phenomenon, the seaweed protein purified by the example 1 is added to the liver cell by concentration (0˜100[…]/□), then cultured for 24 hours, and thereafter mixed with the homogenate (nuclear lysis buffer, 100 mM NaCl2, 40 mM Tris-Cl, pH 7.4, 20 mM EDTA, 0.5% SDS). […] 10[…] of DNA is treated by an electrophoresis manner (50V, 2 hours) in the agarose cell, dyed by editium bromide, and measured by means of ultraviolet rays and the like.

[3] = rats, mean ± S.D. of 10 per group; AAP 700 mg/kg into the abdominal cavity, seaweed protein orally for two weeks
Method: Animals for the experiment are male rats (body weight of 100±10 g), as Sparague Dawley of four-week-old, obtained from Hyochang science. 10 rats are divided into three groups, respectively (control group, AAP sole administration group and AAP+seaweed protein administration group), bred in row breeding cages for 7 days as a domestication preparation breeding. At this time, the temperature (22±1° C.), humidity (50±10%) and brightness (12 hours, 08˜18:00) of a breeding room are strictly controlled. After performing the domestication preparation breeding, general feed and water are freely supplied and then a saline solution (control group and AAP sole administration group) and the seaweed protein are orally administrated for two weeks. 700 mg/kg of AAP melted by DMSO is administrated into the abdominal cavity and after 24 hours, heads of rats are cut and then a blood-gathering process is performed. […] And the liver is extracted and washed by the saline solution and thereafter the weight thereof is measured and a part thereof is fixed into the bouin solution (picric acid:formalin:glacial acid=15:5:1). […]
To examine the influence on the liver tissue, liver weight and the change of body weight of the seaweed protein separated and purified at the example 1, the liver tissue of a rat is extracted and its weight is measured.

Q: Which results are given for CC(=O)Nc1ccc(O)cc1 [AAP, Acetaminophen]?
A: Cleaved caspase-3 with activation (FIG. 9) [1]: the activated and cleaved caspase-3 is increased; Caspase-3 cleavage/activity (western blot, FIG. 8) [2]: cleaved and then the activity is increased; Expression of Bcl-2 (western blot, FIG. 8) [2]: inhibited according to the increase of the AAP concentration; PARP cleavage (western blot, FIG. 8) [2]: cleaved from 116 kDa to 85 kDa; Cell apoptosis by DAPI dyeing (FIG. 8) (HepG2 cell): many cell apoptosis modes with the red color are formed; DNA fragmentation in liver cell (FIG. 8) (HepG2 cell): The DNA fractions are confirmed identically; Final body weight [3]: 299 ± 14.92 g; Weight of liver [3]: 10.86 ± 0.9 g
